These results are taken from patent US20130281397A1, “TREATMENT OF DISEASES BY EPIGENETIC REGULATION” (RVX Therapeutics Inc., priority 2012, published 2013).

Structures are written as SMILES. Where a name gives a salt, the structure may show the parent alone.

The experiment deals with T1, Brd4 bromodomain 1 (Homo sapiens, UniProt O60885).
T1 construct: made in house; host or cells: E. coli BL21(DE3)
The experiment in a line: Inhibition of binding of tetra-acetylated histone H4 and Brd4 bromodomain 1 by TR-FRET. The note with it: His-tagged bromodomain 200 nM, biotinylated tetra-acetylated histone H4 peptide 25-50 nM, 2 hours at room temperature. On the procedure: Proteins were cloned and overexpressed with a N-terminal 6×His tag, then purified by nickel affinity followed by size exclusion chromatography. Briefly, E. coli BL21(DE3) cells were transformed with a recombinant expression vector encoding N-terminally […] tagged bromodomains from Brd2, Brd3, or Brd4. Cell cultures were incubated at 37° C. with shaking to the appropriate density and induced overnight with IPTG. The supernatant of lysed cells was loaded onto Ni-IDA column for purification. Eluted protein was pooled, concentrated and further purified by size exclusion chromatography. Fractions representing monomeric protein were pooled, concentrated, aliquoted, and frozen at −80° C. for use in subsequent experiments.
For inhibition assays, serially diluted test compound was added to these reactions in a 0.2% final concentration of DMSO. Final buffer concentrations were 30 mM HEPES pH 7.4, 30 mM NaCl, 0.3 mM CHAPS, 20 mM phosphate pH 7.0, 320 mM KF, 0.08% BSA). […] The binding inhibitory activity was shown by a decrease in 665 nm fluorescence relative to 620 nm. IC50 values were determined from a dose response curve.
In general terms: Time-resolved FRET reads energy transfer from a long-lived donor to a nearby acceptor.
In the case of `N=C(N)NCCC[C@H](N)C(=O)Oc1ccc(-c2cc3ccccc3c(=O)[nH]2)cc1` (stereo in doubt) [Example 2, 4-(1-Oxo-1,2-dihydroisoquinolin-3-yl)phenyl 2-amino-5-guanidinopentanoate trihydrochloride], the “FRET activity (<50 uM)” value is given as “Active”. As for `Cc1cc(-c2cc3ncccc3c(=O)[nH]2)cc(C)c1O` [Example 5, 7-(4-hydroxy-3,5-dimethylphenyl)-1,6-naphthyridin-5(6H)-one], the “FRET activity (<50 uM)” value is listed as “Inactive”.

With `COc1cc(OC)c2c(=O)[nH]c(-c3cc(C)c(OCCO)c(C)c3)cc2c1` [Example 6, 3-(4-(2-hydroxyethoxy)-3,5-dimethylphenyl)-6,8-dimethoxyisoquinolin-1(2H)-one], the “FRET activity (<50 uM)” value is recorded as “Active”. Turning to `COc1cc(OC)c2c(=O)[nH]c(-c3cc(C)c(OCCN(C)C)c(C)c3)cc2c1` [Example 7, 3-(4-(2-(dimethylamino)ethoxy)-3,5-dimethylphenyl)-6,8-dimethoxyisoquinolin-1(2H)-one], the “FRET activity (<50 uM)” value was “Active”. Take `COc1cc(O)nc2cc(-c3cc(C)c(O)c(C)c3)[nH]c(=O)c12` [Example 9, 2-hydroxy-7-(4-hydroxy-3,5-dimethylphenyl)-4-methoxy-1,6-naphthyridin-5(6H)-one]: the “FRET activity (<50 uM)” value is recorded as “Inactive”. On to `COc1cc(OC)c2c(=O)[nH]c(-c3cc(C)c(O)c(C)c3)cc2n1` [Example 13, 7-(4-hydroxy-3,5-dimethylphenyl)-2,4-dimethoxy-1,6-naphthyridin-5(6H)-one], for which the “FRET activity (<50 uM)” value was “Active”.

As to `COc1cc2cc(-c3cc(C)c(O)c(C)c3)n(C)c(=O)c2c(OC)c1CN1CCOCC1` [Example 14, 3-(4-hydroxy-3,5-dimethylphenyl)-6,8-dimethoxy-2-methyl-7-(morpholinomethyl)isoquinolin-1(2H)-one], the “FRET activity (<50 uM)” value is “Inactive”. The entry for `COc1cc(OC)c2c(=O)[nH]c(-c3cc(C)c(OCCN4CCOCC4)c(C)c3)cc2c1` [Example 15, 3-(3,5-dimethyl-4-(2-morpholinoethoxy)phenyl)-6,8-dimethoxyisoquinolin-1(2H)-one] is “Active”; for `COc1cc(OC)c2c(=O)[nH]c(-c3cc(C)c(OCCN4CCN(C)CC4)c(C)c3)cc2c1` [Example 18, 3-(3,5-dimethyl-4-(2-(4-methylpiperazin-1-yl)ethoxy)phenyl)-6,8-dimethoxyisoquinolin-1(2H)-one] it is “Active”; for `COc1cc(OC)c2c(=O)[nH]c(-c3ccc(O)cc3)nc2c1` [Example 19, 2-(4-hydroxyphenyl)-5,7-dimethoxyquinazolin-4(3H)-one] it is “Active”. As to `COc1cc(OC)c2c(=O)[nH]c(-c3ccc(OCC(=O)O)cc3)nc2c1` [Example 20, 2-(4-(5,7-dimethoxy-4-oxo-3,4-dihydroquinazolin-2-yl)phenoxy)acetic acid], the “FRET activity (<50 uM)” value is “Active”. `COc1cc(OC)c2c(=O)[nH]c(-c3ccccn3)nc2c1` [Example 21, 5,7-dimethoxy-2-(pyridin-2-yl)quinazolin-4(3H)-one]: the “FRET activity (<50 uM)” value is given as “Active”.

On to `COc1cc(OC)c2c(=O)[nH]c(-c3cccnc3)nc2c1` [Example 22, 5,7-dimethoxy-2-(pyridin-3-yl)quinazolin-4(3H)-one], for which the “FRET activity (<50 uM)” value is reported as “Active”. With `COc1cc(OC)c2c(=O)[nH]c(-c3ccncc3)nc2c1` [Example 28, 5,7-dimethoxy-2-(pyridin-4-yl)quinazolin-4(3H)-one], the “FRET activity (<50 uM)” value is given as “Inactive”. Take `Cc1cc(-c2nc3ccccc3c(=O)[nH]2)cc(C)c1OCCN1CCOCC1` [Example 29, 2-(3,5-dimethyl-4-(2-morpholinoethoxy)phenyl)quinazolin-4(3H)-one]: the “FRET activity (<50 uM)” value is reported as “Inactive”. For the compound `COc1cc(OC)c2c(=O)[nH]c(-c3ccc(N4CCOCC4)cc3)nc2c1` [Example 44, 5,7-dimethoxy-2-(4-morpholinophenyl)quinazolin-4(3H)-one], the “FRET activity (<50 uM)” value is “Active”. On to `COc1cc(OC)c2c(=O)[nH]c(-c3ccc(CN4CCN(C)CC4)cc3)nc2c1` [Example 54, 5,7-dimethoxy-2-(4-((4-methylpiperazin-1-yl)methyl)phenyl)quinazolin-4(3H)-one], for which the “FRET activity (<50 uM)” value is recorded as “Active”.

Turning to `COc1cc(OC)c2c(=O)[nH]c(-c3ccc(CN4CCOCC4)cc3)nc2c1` [Example 61, 5,7-dimethoxy-2-(4-(morpholinomethyl)phenyl)quinazolin-4(3H)-one], the “FRET activity (<50 uM)” value is listed as “Active”.

For the compound `CCN1CCN(Cc2ccc(-c3nc4cc(OC)cc(OC)c4c(=O)[nH]3)cc2)CC1` [Example 62, 2-(4-((4-ethylpiperazin-1-yl)methyl)phenyl)-5,7-dimethoxyquinazolin-4(3H)-one], the “FRET activity (<50 uM)” value is “Active”. For `COc1ccc2nc(-c3cc(C)c(OCCO)c(C)c3)[nH]c(=O)c2c1` [Example 76, 2-(4-(2-hydroxyethoxy)-3,5-dimethylphenyl)-6-methoxyquinazolin-4(3H)-one] the value was “Inactive”; for `COc1cc(OC)c2c(=O)[nH]c(-c3ccccc3Cl)nc2c1` [Example 77, 2-(2-chlorophenyl)-5,7-dimethoxyquinazolin-4(3H)-one], “Inactive”; for `COc1cccc2nc(-c3cc(C)c(OCCO)c(C)c3)[nH]c(=O)c12` [Example 78, 2-(4-(2-hydroxyethoxy)-3,5-dimethylphenyl)-5-methoxyquinazolin-4(3H)-one], “Active”.

For the compound `COc1cc(OC)c2c(=O)[nH]c(-c3cccc(-c4ccc(S(C)(=O)=O)cc4)n3)nc2c1` [Example 80, 5,7-dimethoxy-2-(6-(4-(methylsulfonyl)phenyl)pyridin-2-yl)quinazolin-4(3H)-one], the “FRET activity (<50 uM)” value was “Active”. On to `COc1cc(OC)c2c(=O)[nH]c(-c3cccc(C)n3)nc2c1` [Example 81, 5,7-dimethoxy-2-(6-methylpyridin-2-yl)quinazolin-4(3H)-one], for which the “FRET activity (<50 uM)” value is “Active”. Regarding `COc1cc(OC)c2c(=O)[nH]c(-c3cccc(-c4ccc(SC)cc4)n3)nc2c1` [Example 82, 5,7-dimethoxy-2-(6-(4-(methylthio)phenyl)pyridin-2-yl)quinazolin-4(3H)-one], the “FRET activity (<50 uM)” value is given as “Inactive”. For the compound `COc1cc(OC)c2c(=O)[nH]c(-c3cc(C)nc(Cl)c3)nc2c1` [Example 83, 2-(2-chloro-6-methylpyridin-4-yl)-5,7-dimethoxyquinazolin-4(3H)-one], the “FRET activity (<50 uM)” value is recorded as “Inactive”.

As to `COc1cc(OC)c2c(=O)[nH]c(-c3cc(C)c(OC)c(C)c3)nc2c1` [Example 84, 5,7-dimethoxy-2-(4-methoxy-3,5-dimethylphenyl)quinazolin-4(3H)-one], the “FRET activity (<50 uM)” value is on record as “Active”.

With `COc1cc(OC)c2c(=O)[nH]c(-c3cc(C)c(N)c(C)c3)nc2c1` [Example 85, 2-(4-amino-3,5-dimethylphenyl)-5,7-dimethoxyquinazolin-4(3H)-one], the “FRET activity (<50 uM)” value is given as “Active”.

Take `COc1cc(OC)c2c(=O)[nH]c(-c3cc(C)cc(C)c3)nc2c1` [Example 86, 2-(3,5-dimethylphenyl)-5,7-dimethoxyquinazolin-4(3H)-one]: the “FRET activity (<50 uM)” value was “Active”. As to `COc1cc(OC)c2c(=O)[nH]c(-c3cc(C)c(/N=C/N(C)C)c(C)c3)nc2c1` [Example 87, (E)-N′-(4-(5,7-dimethoxy-4-oxo-3,4-dihydroquinazolin-2-yl)-2,6-dimethylphenyl)-N,N-dimethylformimidamide], the “FRET activity (<50 uM)” value was “Active”.

Turning to `Cc1cc(-c2nc3ccc(Br)cc3c(=O)[nH]2)cc(C)c1O` [Example 88, 6-bromo-2-(4-hydroxy-3,5-dimethylphenyl)quinazolin-4(3H)-one], the “FRET activity (<50 uM)” value is “Inactive”. For `Cc1cc(-c2nc3ccc(Br)cc3c(=O)[nH]2)cc(C)c1OCCO` [Example 89, 6-bromo-2-(4-(2-hydroxyethoxy)-3,5-dimethylphenyl)quinazolin-4(3H)-one] the value was “Inactive”; for `COc1cc(OC)c2c(=O)[nH]c(-c3cc(C)c(OCc4ccccc4)c(C)c3)nc2c1` [Example 90, 2-(4-(benzyloxy)-3,5-dimethylphenyl)-5,7-dimethoxyquinazolin-4(3H)-one], “Inactive”. As for `COc1cc(OC)c2c(=O)[nH]c(-c3ccc(OCCO)c(C)c3)nc2c1` [Example 91, 2-(4-(2-hydroxyethoxy)-3-methylphenyl)-5,7-dimethoxyquinazolin-4(3H)-one], the “FRET activity (<50 uM)” value is listed as “Active”.

In the case of `COc1cc(OC)c2c(=O)[nH]c(-c3ccc(O)c(C)c3)nc2c1` [Example 92, 2-(4-hydroxy-3-methylphenyl)-5,7-dimethoxyquinazolin-4(3H)-one], the “FRET activity (<50 uM)” value was “Active”.

Turning to `CNC(=O)c1ccccc1C(=O)NCCOc1c(C)cc(-c2nc3cc(OC)cc(OC)c3c(=O)[nH]2)cc1C` [Example 93, N1-(2-(4-(5,7-dimethoxy-4-oxo-3,4-dihydroquinazolin-2-yl)-2,6-dimethylphenoxy)ethyl)-N2-methylphthalamide], the “FRET activity (<50 uM)” value was “Active”.

For `COc1ccc(S(=O)(=O)NCCOc2c(C)cc(-c3nc4cc(OC)cc(OC)c4c(=O)[nH]3)cc2C)cc1` [Example 94, N-(2-(4-(5,7-dimethoxy-4-oxo-3,4-dihydroquinazolin-2-yl)-2,6-dimethylphenoxy)ethyl)-4-methoxybenzenesulfonamide], the “FRET activity (<50 uM)” value is “Inactive”.
